Measured values published in ChEMBL document CHEMBL5543099 (Eur J Med Chem, 2024).
≈ marks a conversion by molar mass, not a printed value.

Legend:
Enterococcus faecalis = experiment: Antimicrobial activity against Enterococcus faecalis ATCC 29212 assessed as inhibition of bacterial growth incubated for 16 to 18 hrs by CLSI protocol based Muller Hinton broth assay; type: functional; details: time 16-18 hrs
Escherichia coli = experiment: Antimicrobial activity against Escherichia coli ATCC 25922 assessed as inhibition of bacterial growth incubated for 16 to 18 hrs by CLSI protocol based Muller Hinton broth assay; type: functional; details: time 16-18 hrs
[1] = test system: Stenotrophomonas maltophilia; experiment: Antimicrobial activity against Stenotrophomonas maltophilia ATCC 17808 assessed as inhibition of bacterial growth incubated for 16 to 18 hrs by CLSI protocol based Muller Hinton broth assay; type: functional; details: time 16-18 hrs
Staphylococcus aureus = experiment: Antimicrobial activity against Staphylococcus aureus ATCC 29213 assessed as inhibition of bacterial growth incubated for 16 to 18 hrs by CLSI protocol based Muller Hinton broth assay; type: functional; details: time 16-18 hrs
[2] = Hemolytic activity in defibrinated sheep RBC incubated for 1 hrs; type: toxicity, cell-based, Ovis aries, Erythrocyte; details: defibrinated sheep red blood cells

SMILES | MIC (Enterococcus faecalis) [µg/mL] | MIC (Escherichia coli) [µg/mL] | MIC [1] [µg/mL] | MIC (Staphylococcus aureus) [µg/mL] | HC50 at 1 h [2] [µg/mL]
O=C(O)c1cn(C2CC2)c2cc(N3CCN(C(=O)c4cc[n+](Cc5ccc(C(F)(F)F)cc5)cc4)CC3)c(F)cc2c1=O.[Br-] | 8 | 4 | 4 | 16 | > 1280
O=C(O)c1cn(C2CC2)c2cc(N3CCN(C(=O)c4cc[n+](Cc5ccc(-c6ccccc6)cc5)cc4)CC3)c(F)cc2c1=O.[Br-] | 32 | 4 | 4 | 4 | > 1280
O=C(O)c1cn(C2CC2)c2cc(N3CCN(C(=O)c4cc[n+](Cc5ccccc5)cc4)CC3)c(F)cc2c1=O.[Br-] | 8 | 8 | 4 | 16 | > 1280
C[C@@H](O)[C@H]1C(=O)N2C(C(=O)O)=C(S[C@@H]3CN[C@H](C(=O)N(C)C)C3)[C@H](C)[C@H]12 [MEROPENEM] |  | 0.03 (≈ 0.0782 µM) | 0.06 (≈ 0.156 µM) |  | 
CCCCNC(=O)C[n+]1cccc(C(=O)N2CCN(c3cc4c(cc3F)c(=O)c(C(=O)O)cn4C3CC3)CC2)c1.[Br-] | > 64 | 32 | > 64 | 64 | > 1280
O=C(O)c1cn(C2CC2)c2cc(N3CCN(C(=O)c4cc[n+](Cc5ccc(Cl)cc5)cc4)CC3)c(F)cc2c1=O.[Br-] | 8 | 8 | 8 | 16 | > 1280
O=C(O)c1cn(C2CC2)c2cc(N3CCN(C(=O)C[n+]4ccc(-c5ccccc5)cc4)CC3)c(F)cc2c1=O.[Br-] | 8 | 16 | 16 | 16 | > 1280
CCCNC(=O)C[n+]1cccc(C(=O)N2CCN(c3cc4c(cc3F)c(=O)c(C(=O)O)cn4C3CC3)CC2)c1.[Br-] | 64 | 16 | > 64 | 64 | > 1280

Now from value to compound, other results behind:

MIC (Enterococcus faecalis) [µg/mL] | MIC (Escherichia coli) [µg/mL] | MIC [1] [µg/mL] | MIC (Staphylococcus aureus) [µg/mL] | SMILES | HC50 at 1 h [2] [µg/mL]
64 | 32 | > 64 | 32 | CCCCCNC(=O)C[n+]1cccc(C(=O)N2CCN(c3cc4c(cc3F)c(=O)c(C(=O)O)cn4C3CC3)CC2)c1.[Br-] | > 1280
8 | 8 | 32 | 8 | CCCCCCCCCNC(=O)C[n+]1cccc(C(=O)N2CCN(c3cc4c(cc3F)c(=O)c(C(=O)O)cn4C3CC3)CC2)c1.[Br-] | > 1280
32 | 16 | 64 | 16 | CCCCCCNC(=O)C[n+]1cccc(C(=O)N2CCN(c3cc4c(cc3F)c(=O)c(C(=O)O)cn4C3CC3)CC2)c1.[Br-] | > 1280
16 | 16 | 64 | 16 | CCCCNC(=O)C[n+]1ccc(C(=O)N2CCN(c3cc4c(cc3F)c(=O)c(C(=O)O)cn4C3CC3)CC2)cc1.[Br-] | > 1280
8 | 8 | 64 | 8 | CCCCCCCNC(=O)C[n+]1cccc(C(=O)N2CCN(c3cc4c(cc3F)c(=O)c(C(=O)O)cn4C3CC3)CC2)c1.[Br-] | > 1280
2 | 4 | 16 | 4 | CCCCCCCCCNC(=O)C[n+]1ccc(C(=O)N2CCN(c3cc4c(cc3F)c(=O)c(C(=O)O)cn4C3CC3)CC2)cc1.[Br-] | > 1280
8 | 8 | 16 | 8 | CCCCCCNC(=O)C[n+]1ccc(C(=O)N2CCN(c3cc4c(cc3F)c(=O)c(C(=O)O)cn4C3CC3)CC2)cc1.[Br-] | > 1280
8 | 8 | 16 | 8 | CCCCCCCCNC(=O)C[n+]1cccc(C(=O)N2CCN(c3cc4c(cc3F)c(=O)c(C(=O)O)cn4C3CC3)CC2)c1.[Br-] | > 1280
